Laboratory results as given in patent publication US20040152727A1, “Novel use” (priority 2001, published 2004).
Marks after values point to notes of the source that are not given here.

How the values were obtained:
rats [1] = experiment: small intestinal transit in normal, non-sensitised animals; assay type: in vivo, rat; conditions: 15 mg/kg po
[2] = system: guinea-pig isolated colon; experiment: stretch-induced reflex activity in guinea-pig isolated colon; conditions: 250 nM applied for 30-45 min; 6, 12 or 20 g weights; greater at higher distension
Source text: For reflex studies, 5-7 cm lengths of colon were suspended in warmed, oxygenated physiological saline, so that an 8 mm metal bar could be inserted into the lumen and connected, via a thread passing through the intestinal wall, to a pulley system which allowed different weights to pull on the bar and distend the intestine. Force transducers were attached to the wall of the colon via small wire hooks, 5 mm either side of the distending bar. Colonic wall distension using 6, 12 or 20 g weights evoked rhythmic contractions oral to the distension and a small relaxation on the anal side. Application of 12 and 20 g weights evoked similar patterns of activity and although the small relaxation on the anal side of the distension seemed more apparent, the oral excitatory response was not different from the effects of the 6 g weight.

rats [3] = experiment: rat gastric emptying, phenol red method; assay type: in vivo; conditions: for % GASTRIC EMPTYING: rat, oral
conscious rats = experiment: colo-rectal distension in conscious rats (intestinal nociception); assay type: in vivo, rat
rats [4] = experiment: egg-albumin sensitized increase in rat small intestinal transit; assay type: in vivo; conditions: pre-treatment 15 mg/kg po
rat NK-3 receptor = target: T1, rat NK-3 receptor (Rattus norvegicus, UniProt P16177); experiment: affinity for the rat NK-3 receptor; assay type: binding; conditions: relative to its higher affinity for the human or guinea-pig variants
T1 sequence (P16177 1-452): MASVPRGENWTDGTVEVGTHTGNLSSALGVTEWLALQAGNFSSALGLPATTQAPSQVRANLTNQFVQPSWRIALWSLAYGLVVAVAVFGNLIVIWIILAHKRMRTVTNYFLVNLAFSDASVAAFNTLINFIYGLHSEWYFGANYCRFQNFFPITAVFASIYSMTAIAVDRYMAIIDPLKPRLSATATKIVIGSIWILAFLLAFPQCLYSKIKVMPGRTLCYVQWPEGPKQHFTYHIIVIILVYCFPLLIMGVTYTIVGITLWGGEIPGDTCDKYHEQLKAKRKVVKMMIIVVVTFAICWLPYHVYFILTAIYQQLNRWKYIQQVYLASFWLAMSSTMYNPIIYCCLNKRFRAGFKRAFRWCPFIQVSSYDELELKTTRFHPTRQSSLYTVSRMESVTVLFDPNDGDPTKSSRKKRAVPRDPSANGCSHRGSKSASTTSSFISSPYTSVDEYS

rats [5] = experiment: gastrointestinal motility in rats, charcoal meal test; assay type: in vivo, rat; conditions: for effect on gastrointestinal motility in the rat: charcoal meal test; for % CHANGE FROM VEHICLE-TREATED ANIMALS / GROUP MEAN DISTANCE TRAVELLED BY CHARCOAL AS % OF TOTAL GUT LENGTH ± SD: rat, oral
Source text: Thus, the distance travelled by the charcoal meal in each Compound (I)-treated group was similar to the vehicle-treated group at each tested dose.

[6] = system: guinea-pig enteric neurones; experiment: slow EPSP in guinea-pig enteric neurones; assay type: cell-based; conditions: 0.1 microM
Procedure: The slowEPSP was elicited by high frequency (20 Hz) electrical stimulation for 1 s, applied to a circumferential internodal strand connecting to the ganglion. […] It was perfused continuously and the slowEPSP was tested at various intervals. In all four neurons there was a decrease of peak amplitude of depolarisation of over 50% when compared with baseline, once the drug had circulated for at least 30 minutes.

CC[C@H](NC(=O)c1c(O)c(-c2ccccc2)nc2ccccc12)c1ccccc1 [Compound (I), (S)-N-(α-ethylbenzyl)-3-hydroxy-2-phenylquinoline-4-carboxamide]
effect on small intestinal transit (rats [1]): did not significantly affect | effect on reflexes evoked by colonic wall distension [2]: reduced the effects of distension | effect on rat gastric emptying (rats [3]; oral doses of 5, 15 and 50 mg/kg): no marked or statistically significant effects | % GASTRIC EMPTYING (rats [3]; 5 mg/kg): 55.2% | % GASTRIC EMPTYING (rats [3]; 15 mg/kg): 50.7% | % GASTRIC EMPTYING (rats [3]; 50 mg/kg): 62.4% | antinociceptive effect during colo-rectal distension (conscious rats; 10 mg/kg po): without anti-nociceptive activity | antinociceptive effect during colo-rectal distension (conscious rats; 30 mg/kg po): statistically significant only at the highest distension pressure | effect on colo-rectal tone (conscious rats; 50 mg/kg po): without affecting colo-rectal tone | antinociceptive effect during colo-rectal distension (conscious rats; 50 mg/kg po, 30, 45 and 60 mmHg distension pressures): significant antinociceptive effect | effect on increased transit after egg-albumin sensitisation (rats [4]): greatly inhibited | affinity for the rat NK-3 receptor (rat NK-3 receptor): low affinity | effect on gastrointestinal motility in the rat (rats [5]; oral, 5, 15 and 50 mg/kg): no marked or statistically significant effect | % CHANGE FROM VEHICLE-TREATED ANIMALS (rats [5]; 5 mg/kg): −11.5% | GROUP MEAN DISTANCE TRAVELLED BY CHARCOAL AS % OF TOTAL GUT LENGTH ± SD (rats [5]; 5 mg/kg): 46.9 ± 5.3% | % CHANGE FROM VEHICLE-TREATED ANIMALS (rats [5]; 15 mg/kg): −1.7% | GROUP MEAN DISTANCE TRAVELLED BY CHARCOAL AS % OF TOTAL GUT LENGTH ± SD (rats [5]; 15 mg/kg): 52.1 ± 7.1% | % CHANGE FROM VEHICLE-TREATED ANIMALS (rats [5]; 50 mg/kg): −4.9% | GROUP MEAN DISTANCE TRAVELLED BY CHARCOAL AS % OF TOTAL GUT LENGTH ± SD (rats [5]; 50 mg/kg): 50.4 ± 8.6% | decrease of peak amplitude of depolarisation of slowEPSP compared with baseline ([6]; circulated at least 30 minutes, all four neurons): over 50% | blockade of slowEPSP ([6]; one neuron): 100% | blockade of slowEPSP based on the amplitude of depolarisation ([6]; the other three neurons): 60-80%

CN1CC[C@]23c4c5ccc(O)c4O[C@H]2[C@@H](O)C=C[C@H]3[C@H]1C5.O=S(=O)(O)O [Morphine sulfate, reference compound]
effect on rat gastric emptying (rats [3]; orally at 20 mg/kg): marked and statistically significant decrease | % GASTRIC EMPTYING (rats [3]; 20 mg/kg): 30.8** % | effect on gastrointestinal motility in the rat (rats [5]; oral dose of 10 mg/kg): marked and statistically significant decrease | % CHANGE FROM VEHICLE-TREATED ANIMALS (rats [5]; 10 mg/kg): −29.4% | GROUP MEAN DISTANCE TRAVELLED BY CHARCOAL AS % OF TOTAL GUT LENGTH ± SD (rats [5]; 10 mg/kg): 37.4 ± 12.4%
